Assay results published in publication PMC3598906 (2013).

Assays:
[1] = system: ds26 (DNA, duplex) CAATCGGATCGAATTCGATCCGATTG; experiment: competitive dialysis; details: potassium phosphate buffer, 50 µM DNA, 1 µM ligand, 24 h, room temperature
[2] = system: HT24 (DNA, G4) TAGGGTTAGGGTTAGGGTTAGGGT; experiment: competitive dialysis; details: potassium phosphate buffer; 50 µM DNA, 1 µM ligand, 24 h, room temperature
[3] = system: 24bcl (DNA, G4) CGGGCGCGGGAGGAAGGGGGCGGG; experiment: competitive dialysis; details: potassium phosphate buffer; 50 µM DNA, 1 µM ligand, 24 h, room temperature
[4] = system: cmyc (DNA, G4) GGGGAGGGTGGGGAGGGTGGGGAAGGTGGGG; experiment: competitive dialysis; details: potassium phosphate buffer; 50 µM DNA, 1 µM ligand, 24 h, room temperature
ds6 (DNA, duplex) CGATCG [5] = experiment: fluorescence titration; details: 185 mM KCl, 185 mM NaCl; pH 7, 25 °C; up to 25 µM DNA, 1 µM ligand; n.d., no change in fluorescence
Htel (DNA, G4) TTAGGG [6] = experiment: imino proton NMR melting; details: 150 mM KCl, 25 mM KH2PO4; 1 mM EDTA, pH 6.7; imino signals lost at 45-55 °C free, still observed at 55 °C bound
Htel (DNA, G4) TTAGGG [7] = experiment: 1H NMR titration and NOESY; details: 150 mM KCl, 25 mM KH2PO4, 1 mM EDTA, pH 6.7, 25 °C
Htel (DNA, G4) TTAGGG [8] = experiment: fluorescence titration, Equispec fit; details: 185 mM KCl, 185 mM NaCl; 6 mM Na2HPO4, 2 mM NaH2PO4, 1 mM EDTA, pH 7, 25 °C; macroscopic; 1 µM ligand
[9] = system: ds8 (DNA, duplex) GCGATCGC; experiment: 1H NMR titration; details: 70 mM KCl, 10 mM KH2PO4; 0.2 mM EDTA, pH 7.0; line broadening only, no intermolecular NOE; ions stated for other duplexes
ds6 (DNA, duplex) CGATCG [10] = experiment: 1H and 31P NMR titration; details: 70 mM KCl, 10 mM KH2PO4; 0.2 mM EDTA, pH 7.0; [drug]/[DNA] up to 3

In the case of `CN1CCN(C(=O)c2ccc3c(NC4CCN(Cc5ccccc5)CC4)c4ccccc4nc3c2)CC1`, the binding [1] is reported as “no”, the binding [2] is reported as “yes” and the binding [3] is reported as “yes”. The binding [4] was “yes”, the binding (ds6 (DNA, duplex) CGATCG [5]) was “no” and the binding (Htel (DNA, G4) TTAGGG [6]) was “yes”. The binding (Htel (DNA, G4) TTAGGG [7]; site at T2, A3, G4) was “yes” and the “Logarithm of the binding constants” value (Htel (DNA, G4) TTAGGG [8]) was 4.4 ± 0.1 log (M-1).
With `CN1CCN(C(=O)c2cccc3c(NCCc4c[nH]c5ccccc45)c4ccccc4nc23)CC1` the binding [9] was “weak”, the binding ([1]; NMR suggests outside binding) was “yes” and the binding [2] was “yes”. The binding [3] was “yes”, the binding [4] was “yes” and the binding (ds6 (DNA, duplex) CGATCG [5]) was “no”. The binding (Htel (DNA, G4) TTAGGG [6]) was “yes”, the binding (ds6 (DNA, duplex) CGATCG [10]) was “no” and the binding (Htel (DNA, G4) TTAGGG [7]; intercalates between A3 and G4) was “yes”. The “Logarithm of the binding constants” value (Htel (DNA, G4) TTAGGG [8]) was 4.9 ± 0.1 log (M-1).
